Where two headings read alike, the source gives them in different places.
System: NLRP3
Assay: IL-1β secretion assay in PMA-differentiated, LPS/nigericin-stimulated THP-1 cells (384-well, ELISA read-out)
Type: cell-based, human
Outline: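 Secreted IL-1β quantified by capture ELISA from supernatants of PMA-differentiated THP-1 cells (30K per well). Sequence: LPS 25 ng/mL priming 2 h, compound 1 h, nigericin 2 h; dose-responses normalized between high (LPS plus 5 μM nigericin) and low (LPS alone) controls.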

[1] = Homo sapiens, THP-1, IL-1β secretion, PMA-differentiated THP-1 cells, LPS then nigericin stimulation, ELISA read at 450 nm, read-out: Activity
[2] = Homo sapiens, THP-1, Table 4, IL-1β secretion, LPS/nigericin-stimulated THP-1 cells, read-out: IC50
[3] = IL-1β secretion, PMA-differentiated THP-1 cells, LPS then nigericin stimulation, ELISA read at 450 nm, read-out: Activity
[4] = Table 4, IL-1β secretion, LPS/nigericin-stimulated THP-1 cells, read-out: IC50

Row | SMILES | IC50 [1] | IC50 [2] | IC50 [3] | IC50 [4]
1 | C#Cc1ccc2c(c1F)C1(CC1)CN(CC(=O)Nc1ncc(F)cn1)C2=O [Example 302, 2-(6-ethynyl-5-fluoro-1-oxospiro[3H-isoquinoline-4,1′-cyclopropane]-2-yl)-N-(5-fluoropyrimidin-2-yl)acetamide] | < 10 µM | 0.539 µM |  | 
2 | O=C(CN1CC2(CC2)c2cc(C(F)(F)F)ccc2C1=O)Nc1ncccn1 [Example 27, 2-[1-oxo-6-(trifluoromethyl)spiro[3H-isoquinoline-4,1′-cyclopropane]-2-yl]-N-pyrimidin-2-yl-acetamide] | < 10 µM | 0.291 µM |  | 
3 | N#CC1(c2ccc3c(c2)C2(CC2)CN(CC(=O)Nc2ncc(F)cn2)C3=O)CC1 [Example 93, 2-[6-(1-cyanocyclopropyl)-1-oxospiro[3H-isoquinoline-4,1′-cyclopropane]-2-yl]-N-(5-fluoropyrimidin-2-yl)acetamide] | < 10 µM | 2.28 µM |  | 
4 | O=C(CN1C[C@]2(C[C@H]2F)c2cc(I)ccc2C1=O)Nc1ncc(F)cn1 [Example 246] | < 10 µM | 0.006 µM |  | 
5 | Cn1cnc(NC(=O)CN2CC3(CC3)c3cc(Br)ccc3C2=O)n1 [Example 371, 2-(6-bromo-1-oxospiro[3H-isoquinoline-4,1′-cyclopropane]-2-yl)-N-(1-methyl-1,2,4-triazol-3-yl)acetamide] |  | 1.46 µM |  | 
6 | Cc1cnc(NC(=O)CN2C[C@@]3(C[C@@H]3F)c3cc(C(F)(F)F)ccc3C2=O)nc1 (single isomer, unassigned) [Example 245, 2-[(2′s,4r)-2′-fluoro-1-oxo-6-(trifluoromethyl)spiro[3H-isoquinoline-4,1′-cyclopropane]-2-yl]-N-(5-methylpyrimidin-2-yl)acetamide] |  |  | < 10 µM | 0.938 µM
7 | O=C(CN1CC2(CC2)c2cc(Br)ccc2C1=O)Nc1ccc2c(c1)OC(F)(F)O2 [Example 157, 2-(6-bromo-1-oxospiro[3H-isoquinoline-4,1′-cyclopropane]-2-yl)-N-(2,2-difluoro-1,3-benzodioxol-5-yl)acetamide] | < 10 µM | 9.98 µM |  | 
8 | CC1N(CC(=O)Nc2ncccn2)C(=O)c2ccc(C(F)(F)F)cc2C12CC2 (stereo not shown) [Example 76, 2-[3-methyl-1-oxo-6-(trifluoromethyl)spiro[3H-isoquinoline-4,1′-cyclopropane]-2-yl]-N-pyrimidin-2-ylacetamide] | > 15 µM | 16.2 µM |  | 
9 | O=C(CN1CC2(CC2)c2cc(OC(F)F)ccc2C1=O)Nc1ncccn1 [Example 33, N-(pyrimidin-2-yl)-2-[6-(difluoromethoxy)-1-oxospiro[3H-isoquinoline-4,1′-cyclopropane]-2-yl]acetamide] | < 10 µM | 1.28 µM |  | 
10 | O=C(CN1CC2(CC2)c2cc(Br)ccc2C1=O)N[C@@H]1C[C@H]2CC[C@@H]1O2 (stereo in doubt) [Example 17, 2-(6-bromo-1-oxospiro[3H-isoquinoline-4,1′-cyclopropane]-2-yl)-N-[(1S,2R,4R)-7-oxabicyclo[2.2.1]heptan-2-yl]acetamide] | < 10 µM | 4.19 µM |  | 
11 | O=C(CN1CC2(CC2)c2cc(Br)ccc2C1=O)Nc1ncc(I)cn1 [Example 269, 2-(6-bromo-1-oxospiro[3H-isoquinoline-4,1′-cyclopropane]-2-yl)-N-(5-iodopyrimidin-2-yl)acetamide] | < 10 µM | 0.087 µM |  | 
12 | O=C(CN1CC2(CC2)c2cc(C3CC3)ccc2C1=O)Nc1ncc(Cl)cn1 [Example 34, N-(5-chloropyrimidin-2-yl)-2-(6-cyclopropyl-1-oxo-spiro[3H-isoquinoline-4,1′-cyclopropane]-2-yl)acetamide] | < 10 µM | 0.137 µM |  | 
13 | O=C(CN1CC2(CC2)c2cc(Br)ccc2C1=O)Nc1nc2ccc(F)cc2o1 [Example 267, 2-(6-bromo-1-oxospiro[3H-isoquinoline-4,1′-cyclopropane]-2-yl)-N-(6-fluoro-1,3-benzoxazol-2-yl)acetamide] | < 10 µM | 0.359 µM |  | 
14 | COc1cccnc1NC(=O)CN1CC2(CC2)c2cc(Br)ccc2C1=O [Example 407, 2-(6-bromo-1-oxospiro[3H-isoquinoline-4,1′-cyclopropane]-2-yl)-N-(3-methoxypyridin-2-yl)acetamide] |  | 4.28 µM |  | 
15 | Cn1nc(C2CC2)cc1NC(=O)CN1CC2(CC2)c2cc(Br)ccc2C1=O [Example 126, 2-(6-bromo-1-oxospiro[3H-isoquinoline-4,1′-cyclopropane]-2-yl)-N-(5-cyclopropyl-2-methylpyrazol-3-yl)acetamide] | > 15 µM | 15.4 µM |  | 
16 | O=C(CN1CC2(CC2)c2c(F)cccc2C1=O)Nc1ncccn1 [Example 40, 2-(5-fluoro-1-oxo-spiro[3H-isoquinoline-4,1′-cyclopropane]-2-yl)-N-(pyrimidin-2-yl)acetamide] | < 10 µM | 8.78 µM |  | 

Row | SMILES | IC50 [1] | IC50 [2] | IC50 [3] | IC50 [4]
17 | O=C(CN1CC2(CC2)c2c(ccc3sccc23)C1=O)Nc1ncc(F)cn1 [Example 315, N-(5-fluoropyrimidin-2-yl)-2-(6-oxospiro[8H-thieno[3,2-f]isoquinoline-9,1′-cyclopropane]-7-yl)acetamide] |  | 8.92 µM |  | 
18 | O=C(CN1CC2(CC2)c2cc(Br)ccc2C1=O)Nc1nc2ccccc2[nH]1 [Example 145, N-(1H-benzimidazol-2-yl)-2-(6-bromo-1-oxospiro[3H-isoquinoline-4,1′-cyclopropane]-2-yl)acetamide] | < 10 µM | 2.66 µM |  | 
19 | Cc1cccc(NC(=O)CN2CC3(CC3)c3cc(Br)ccc3C2=O)n1 [Example 114, 2-(6-bromo-1-oxospiro[3H-isoquinoline-4,1′-cyclopropane]-2-yl)-N-(6-methylpyridin-2-yl)acetamide] | < 10 µM | 1.99 µM |  | 
20 | N#Cc1cnc(NC(=O)CN2C[C@@]3(C[C@@H]3F)c3c(ccc(C4CC4)c3F)C2=O)nc1 [Example 230, 2-[(2′s,4r)-6-cyclopropyl-2′,5-difluoro-1-oxospiro[3H-isoquinoline-4,1′-cyclopropane]-2-yl]-N-(5-cyanopyrimidin-2-yl)acetamide] | < 10 µM | 0.051 µM |  | 
21 | CC1(O)CC(NC(=O)CN2CC3(CC3(F)F)c3c(ccc(Br)c3F)C2=O)C1 (single isomer, unassigned) [Example 326, N-(3-cis-hydroxy-3-methylcyclobutyl)-2-[6-bromo-1′,1′,5-trifluoro-1-oxospiro[3H-isoquinoline-4,2′-cyclopropane]-2-yl]acetamide] |  |  |  | 0.013 µM
22 | O=C(CN1CC2(CC2)c2cc(Br)ccc2C1=O)NCC1(CC(F)F)CCC1 [Example 112, 2-(6-bromo-1-oxospiro[3H-isoquinoline-4,1′-cyclopropane]-2-yl)-N-[[1-(2,2-difluoroethyl)cyclobutyl]methyl]acetamide] | > 15 µM | 13 µM |  | 
23 | Cc1cc(NC(=O)CN2CC3(CC3)c3cc(Br)ccc3C2=O)nc2ccnn12 [Example 368, 2-(6-bromo-1-oxospiro[3H-isoquinoline-4,1′-cyclopropane]-2-yl)-N-(7-methylpyrazolo[1,5-a]pyrimidin-5-yl)acetamide] |  | 1.6 µM |  | 
24 | Cc1cnc(NC(=O)CN2CC3(CC3)c3cc(Br)ccc3C2=O)c(F)c1 [Example 396, 2-(6-bromo-1-oxospiro[3H-isoquinoline-4,1′-cyclopropane]-2-yl)-N-(3-fluoro-5-methylpyridin-2-yl)acetamide] |  | 1.6 µM |  | 
25 | COCCn1cc(NC(=O)CN2CC3(CC3)c3cc(Br)ccc3C2=O)cn1 [Example 138, 2-(6-bromo-1-oxospiro[3H-isoquinoline-4,1′-cyclopropane]-2-yl)-N-[1-(2-methoxyethyl)pyrazol-4-yl]acetamide] | > 15 µM | 20.5 µM |  | 
26 | CC1(C(F)(F)F)CN(CC(=O)Nc2ncc(F)cn2)C(=O)c2c(Br)cccc21 (stereo not shown) [Example 344, 2-[8-bromo-4-methyl-1-oxo-4-(trifluoromethyl)-3H-isoquinolin-2-yl]-N-(5-fluoropyrimidin-2-yl)acetamide] |  | 27.6 µM |  | 
27 | O=C(CN1CC2(CC2)c2cc(Br)ccc2C1=O)N[C@H]1C[C@@H](c2ccn[nH]2)C1 [Example 334, 2-(6-bromo-1-oxospiro[3H-isoquinoline-4,1′-cyclopropane]-2-yl)-N-[3-cis-(1H-pyrazol-5-yl)cyclobutyl]acetamide] |  | 7.51 µM |  | 
28 | N#Cc1cnc(NC(=O)CN2C[C@@]3(C[C@@H]3F)c3cc(C(F)(F)F)ccc3C2=O)nc1 (single isomer, unassigned) [Example 237, N-(5-cyanopyrimidin-2-yl)-2-[(2′s,4r)-2′-fluoro-1-oxo-6-(trifluoromethyl)spiro[3H-isoquinoline-4,1′-cyclopropane]-2-yl]acetamide] |  |  | < 10 µM | 0.061 µM
29 | Cc1c[nH]c(=O)c(NC(=O)CN2CC3(CC3)c3cc(Br)ccc3C2=O)c1 [Example 154, 2-(6-bromo-1-oxospiro[3H-isoquinoline-4,1′-cyclopropane]-2-yl)-N-(5-methyl-2-oxo-1H-pyridin-3-yl)acetamide] | < 10 µM | 4.33 µM |  | 
30 | O=C(CN1CC2(CC2)c2cc(Br)ccc2C1=O)Nc1ccc2ccccc2n1 [Example 198, 2-(6-bromo-1-oxospiro[3H-isoquinoline-4,1′-cyclopropane]-2-yl)-N-quinolin-2-ylacetamide] | < 10 µM | 1.5 µM |  | 
31 | Cc1cc(NC(=O)CN2CC3(CC3)c3cc(Br)ccc3C2=O)n(-c2ccccc2)n1 [Example 149, 2-(6-bromo-1-oxospiro[3H-isoquinoline-4,1′-cyclopropane]-2-yl)-N-(5-methyl-2-phenylpyrazol-3-yl)acetamide] | < 10 µM | 6.58 µM |  | 
32 | CC(C(=O)Nc1ncc(F)cn1)N1CC2(CC2)c2cc(Br)ccc2C1=O (stereo not shown) [Example 339, 2-(6-bromo-1-oxospiro[3H-isoquinoline-4,1′-cyclopropane]-2-yl)-N-(5-fluoropyrimidin-2-yl)propanamide] |  | 8.29 µM |  | 
